Measurements: patent publication US9988430B2, “Stable GLP-1 based GLP-1/glucagon receptor co-agonists” (Novo Nordisk A/S, priority 2014, dated 2018)
*1 amine or outer side, *2 acyl side, *3 side chain or, on linkers, in order; H or OH if unused. Where a SMILES comes first, the peptide text is derived from it. Bridges are numbered along the chain shown (N, C = ends). Roman numbers before positions name the chains, in order. Side-chain parts run from the residue outwards. [ ]: non-standard residue; d: D form. The star is where a group is joined. C18 diacid = O=C(O)CCCCCCCCCCCCCCCCC(=O)*; γGlu = O=C(O)[C@H](CCC(=O)[*:2])N[*:1]; C14 diacid = O=C(O)CCCCCCCCCCCCC(=O)*; Desaminohistidyl = O=C(CCc1c[nH]cn1)*; AEEA = NCCOCCOCC(=O)O; Aib = CC(C)(N)C(=O)O

Tests used:
human GLP-1 receptor = biological target: T1, human GLP-1 receptor (Homo sapiens, UniProt P43220); assay: Assay (I)(a): GLP-1 receptor potency, CRE luciferase reporter gene assay in BHK cells; format: cell-based; settings: BHK cells expressing human GLP-1 receptor, read-out: EC50 GLP-1R
T1 construct: expressed in transfected cells; host or cells: membranes of BHK cells, parent line BHKTS13, clone FCW467-12A
In short: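 BHK cells (clone FCW467-12A/KZ10-1), 5×10EE3/well, exposed 3 h at 37° C to compound at 1×10EE-13 to 1×10EE-6 M final in medium with 2% ovalbumin and 0.2% Pluronic F-68. Luciferase luminescence read; EC50 (pM) from four-parameter fit.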

human glucagon receptor = biological target: T2, human glucagon receptor (Homo sapiens, UniProt P47871); assay: Assay (II)(b): glucagon receptor binding, [125I]-glucagon displacement, SPA on BHK membranes; settings: displacement of [125I]-glucagon, membranes with human glucagon receptor; read-out: IC50 GlucagonR
T2 construct: expressed in transfected cells; host or cells: membranes of BHK cells, clone BHK hGCGR A3*25
Experimental: Assay (II): GLP-1 and Glucagon Receptor Binding The purpose of this assay is to test the in vitro receptor binding activity of the GLP-1 derivatives of the invention. (b) Glucagon Receptor Binding The glucagon receptor (glucagonR) binding activity is a measure of affinity of a derivative for the human glucagon receptor. The glucagon receptor binding of each derivative were determined with competitive binding, displacing [^125I]-glucagon bound to glucagon receptors expressed in cell membranes associated with wheat germ agglutinin (WGA) scintillation proximity assay (SPA) beads. Each derivative was added in a series of concentrations to isolated membranes comprising the human glucagon receptor and displacement of the labelled ligand was monitored. The receptor binding was reported as the concentration at which half of the labelled ligand is displaced from the receptor, the IC^50 value. The following chemicals were used in the assay: DMEM w Glutamax (Gibco 61965-026), Pen/strep (Invitrogen 15140-122), G418 (Invitrogen 10131-027), Versene (Gibco 15040), 1 M Hepes (Gibco 15630), PBS (Invitrogen 14190-094), fetal calf serum (Invitrogen 16140-071), MgCl2 (Merck 1.05832.1000), EDTA (Invitrogen 15575-038), CaCl2 (Sigma, C5080), Tween 20 (Amresco 0850C335), ovalbumin (Sigma A5503), SPA particles (wheat germ agglutinin (WGA) SPA beads, Perkin Elmer RPNQ0001), [125I]-glucagon (produced in-house), OptiPlate™-96 (Packard 6005290). HME buffer consisted of 25 mM HEPES, 2 mM MgCl2 and 1 mM EDTA, and pH was adjusted to 7.4. Assay buffer consisted of 50 mM HEPES supplemented with 5 mM MgCl2, 1 mM CaCl2, 0.02% Tween 20 and 0.1% Ovalbumin, and pH was adjusted to 7.4. The cells used in this assay (clone BHK hGCGR A3*25) were BHK cells stable transfected with an expression plasmid comprising the cDNA encoding the human glucagon receptor. The cells were grown at 5% CO2 in DMEM, 10% fetal calf serum, 1% Pen/Strep (Penicillin/Streptomycin) and 1.0 mg/ml of the selection marker G418. To make a membrane preparation the cells were grown to approximately 80% confluence. The cells were washed twice in phosphate-buffered saline and harvested. The cells were pelleted using a brief centrifugation and the cell pellet was kept on ice. Lyse the cells by adding approx. 5 ml HME buffer, mix by pipetting and snap freeze in liquid nitrogen. Thaw quickly and add HME buffer to 10 ml. The cell pellet was homogenised with an ULTRA-THURRAX dispersing instrument for 20-30 seconds. The homogenate was centrifuged at 20.000×G, 4° C. for 10 minutes. The pellet was resuspended (homogenised) in 1-2 ml HME buffer. The protein concentration was determined. The membranes were aliquoted and snapfrozen in liquid nitrogen and stored at minus 80° C. • 1. For the receptor binding assay 50 μl of the assay buffer was added to each well of an assay plate. • 2. Test compounds were serially diluted to give the following concentrations: 8×10EE-7 M, 8×10EE-8 M, 8×10EE-9 M, 8×10EE-10 M, 8×10EE-11 M, 8×10EE-12 M and 8×10EE-13 M. Twenty-five μl were added to appropriate wells in the assay plate. • 3. Cell membrane aliquots were thawed and diluted to their working concentration. Fifty μl were added to each well in the assay plate. • 4. WGA SPA beads were suspended in assay buffer at 20 mg/ml. The suspension was diluted to 10 mg/ml in assay buffer just prior to addition to the assay plate. Fifty μl were added to each well in the assay plate. • 5. The incubation was started by adding 25 μl of 480 pM solution of [125I]-glucagon to each well of the assay plate. A 25 μl aliquot was reserved for measuring total counts/well. • 6. The assay plate was incubated for 2 h at 25° C. • 7. The assay plate was centrifuged for 10 min at 1500 rpm. • 8. The assay plate was read in a Perkin Elmer TopCount NXT instrument. Calculations The data from the TopCount instrument were transferred to GraphPad Prism software. The software averaged the values for the replicates and performed a non-linear regression. […]

T2 sequence (P47871 26-477): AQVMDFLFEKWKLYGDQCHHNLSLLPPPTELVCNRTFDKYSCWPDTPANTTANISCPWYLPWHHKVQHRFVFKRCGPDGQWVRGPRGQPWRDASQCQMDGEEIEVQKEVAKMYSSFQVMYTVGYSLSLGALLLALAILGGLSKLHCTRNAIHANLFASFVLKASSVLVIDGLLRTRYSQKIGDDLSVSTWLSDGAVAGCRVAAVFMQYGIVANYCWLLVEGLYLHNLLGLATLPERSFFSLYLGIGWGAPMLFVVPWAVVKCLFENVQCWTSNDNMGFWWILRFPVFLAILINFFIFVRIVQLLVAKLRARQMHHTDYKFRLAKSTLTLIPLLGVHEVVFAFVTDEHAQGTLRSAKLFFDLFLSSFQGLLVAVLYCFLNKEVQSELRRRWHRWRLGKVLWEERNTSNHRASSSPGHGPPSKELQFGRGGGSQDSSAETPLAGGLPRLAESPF
T1 sequence (P43220 24-463): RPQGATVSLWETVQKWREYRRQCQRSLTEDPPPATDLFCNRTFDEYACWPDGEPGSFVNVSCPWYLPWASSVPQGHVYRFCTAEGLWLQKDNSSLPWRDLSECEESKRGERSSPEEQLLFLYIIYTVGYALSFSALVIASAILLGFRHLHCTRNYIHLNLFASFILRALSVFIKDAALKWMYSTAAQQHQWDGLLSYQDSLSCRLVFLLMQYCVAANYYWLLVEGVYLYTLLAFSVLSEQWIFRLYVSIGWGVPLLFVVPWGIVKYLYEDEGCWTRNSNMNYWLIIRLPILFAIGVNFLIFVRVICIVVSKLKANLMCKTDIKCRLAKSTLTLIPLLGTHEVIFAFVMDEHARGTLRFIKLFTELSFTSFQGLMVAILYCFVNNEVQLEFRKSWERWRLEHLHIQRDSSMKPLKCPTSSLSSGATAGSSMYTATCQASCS

EC50 (human GLP-1 receptor) [nM] | IC50 (human glucagon receptor) [nM] | Compound
0.012 | 3.7 | CC[C@H](C)[C@H](NC(=O)[C@H](Cc1ccccc1)NC(=O)[C@H](CCC(=O)O)NC(=O)[C@H](CCCNC(=N)N)NC(=O)[C@H](C)NC(=O)[C@H](C)NC(=O)[C@H](CCC(N)=O)NC(=O)[C@H](CCC(=O)O)NC(=O)[C@H](CCC(=O)O)NC(=O)[C@H](CC(C)C)NC(=O)[C@H](Cc1ccc(O)cc1)NC(=O)[C@H](CCCCN)NC(=O)[C@H](CO)NC(=O)[C@@H](NC(=O)[C@H](CC(=O)O)NC(=O)[C@H](CO)NC(=O)[C@@H](NC(=O)[C@H](Cc1ccccc1)NC(=O)[C@@H](NC(=O)CNC(=O)[C@H](Cc1c[nH]cn1)NC(=O)C(C)(C)NC(=O)CCc1c[nH]cn1)[C@@H](C)O)[C@@H](C)O)C(C)C)C(=O)N[C@@H](C)C(=O)N[C@@H](Cc1c[nH]c2ccccc12)C(=O)N[C@@H](CC(C)C)C(=O)N[C@@H](CC(C)C)C(=O)N[C@@H](CCCCNC(=O)COCCOCCNC(=O)COCCOCCNC(=O)CC[C@H](NC(=O)CC[C@H](NC(=O)CCCCCCCCCCCCC(=O)O)C(=O)O)C(=O)O)C(=O)N[C@H](C(N)=O)[C@@H](C)O [Example 38, N^ε34-[2-[2-[2-[[2-[2-[2-[[(4S)-4-carboxy-4-[[(4S)-4-carboxy-4-(13-carboxytridecanoylamino)butanoyl]amino]butanoyl]amino]ethoxy]ethoxy]acetyl]amino]ethoxy]ethoxy]acetyl]-[Imp7,Aib8,His9,Lys18,Glu22,Arg26,Leu33,Thr35]-GLP-1-(7-35)-peptide amide] (Desaminohistidyl-[Aib]HGTFTSDVSKYLEEQAAREFIAWLLK([AEEA-AEEA-γGlu-γGlu-C14 diacid])T-NH2)
– | 18.8 | CC[C@H](C)[C@H](NC(=O)[C@H](Cc1ccccc1)NC(=O)[C@H](CCC(=O)O)NC(=O)[C@H](CCCNC(=N)N)NC(=O)[C@H](C)NC(=O)[C@H](C)NC(=O)[C@H](CCC(N)=O)NC(=O)[C@H](CCC(=O)O)NC(=O)[C@H](CCC(=O)O)NC(=O)[C@H](CC(C)C)NC(=O)[C@H](Cc1ccc(O)cc1)NC(=O)[C@H](CCCCN)NC(=O)[C@H](CO)NC(=O)[C@@H](NC(=O)[C@H](CC(=O)O)NC(=O)[C@H](CO)NC(=O)[C@@H](NC(=O)[C@H](Cc1ccccc1)NC(=O)[C@@H](NC(=O)CNC(=O)[C@H](Cc1c[nH]cn1)NC(=O)C(C)(C)NC(=O)CCc1c[nH]cn1)[C@@H](C)O)[C@@H](C)O)C(C)C)C(=O)N[C@@H](C)C(=O)N[C@@H](Cc1c[nH]c2ccccc12)C(=O)N[C@@H](CC(C)C)C(=O)N[C@@H](CC(C)C)C(=O)N[C@@H](CCCCNC(=O)CNC(=O)[C@H](CO)NC(=O)[C@H](CCC(=O)O)NC(=O)CNC(=O)[C@H](CO)NC(=O)CC[C@H](NC(=O)CC[C@H](NC(=O)CCCCCCCCCCCCCCCCC(=O)O)C(=O)O)C(=O)O)C(=O)N[C@H](C(=O)O)[C@@H](C)O [Example 25, N^ε34-[2-[[(2S)-2-[[(2S)-4-carboxy-2-[[2-[[(2S)-2-[[(4S)-4-carboxy-4-[[(4S)-4-carboxy-4-(17-carboxyheptadecanoylamino)butanoyl]amino]butanoyl]amino]-3-hydroxypropanoyl]amino]acetyl]amino]butanoyl]amino]-3-hydroxypropanoyl]amino]acetyl]-[Imp7,Aib8,His9,Lys18,Glu22,Arg26,Leu33,Thr35]-GLP-1-(7-35)-peptide] (I: Desaminohistidyl-[Aib]HGTFTSDVSKYLEEQAAREFIAWLLKT-OH / II: {C18 diacid-γGlu-γGlu}-SGESG; amide I:27-II:C)
